Here are results for three molecules from patent US9132131B2, “Use of adenosine A3 receptor agonists for treatment of neuropathic pain” (Saint Louis University, priority 2011, dated 2015).

Values joined by “and” are separate entries in the source; they are usually repeats but may differ in a detail not shown here. Equal values may be shown once. Some results are limits rather than exact numbers.

Data set [1] relates to acute nociception (hot plate latency). As to the kind of experiment: Hot plate assay for acute nociception. The data set is classed as in vivo, mice. Conditions: 0.5 μmol/kg. The method, then: (§1) Tail flick and hot plate assay in mice for acute nociception. The tail flick test, which measures latency(s) of tail withdrawal from a noxious radiant heat source (Ugo Basile; model number 37360) was used to measure thermal nociceptive sensitivity in mice with baseline latencies of 3-5 seconds and a cut-off time of 15 seconds to prevent tissue injury. Tail flick latencies were taken before and at 30, 60 and 120 minutes after i.p. injection of IB-MECA, MRS1898 (0.5 μmol/kg) or its vehicle (0.1% DMSO in saline). For the hot plate test, nociceptive thresholds were determined as previously reported by our group by measuring latencies (in seconds) of mice placed in a transparent glass cylinder on a hot plate maintained at 52° C.. Responses indicative of nociception included intermittent lifting and/or licking of the hindpaws or escape behavior. Hot plate latencies were taken in mice from all groups before and after drug administration. A cut-off latency of 15 seconds was employed to prevent tissue damage.

Data set [2] deals with acute nociception (tail flick latency). As to the kind of experiment: Tail flick assay for acute nociception. The data set is classed as in vivo, mice. As to conditions: IB-MECA, MRS1898 0.5 μmol/kg i.p. at 30, 60, 120 minutes; morphine 35 μmol/kg s.c. positive control. Here is the method:
as §1

For data set [3], the system named is CCI of the sciatic nerve (mechano-allodynia). The experiment in a line: CCI model of neuropathic pain, mechano-allodynia (von Frey PWT). The class given is in vivo, mice. As to conditions: for reversal of mechano-allodynia in ipsilateral paws: single dose D7, IB-MECA 0.2-2, CI-IB-MECA 0.6, MRS1898 0.5 μmol/kg i.p., morphine 0.11-35 s.c., gabapentin 18-584 i.p., amitriptyline 3-191 μmol/kg oral. Here is the method: CCI model of neuropathic pain. CCI to the sciatic nerve of the left hind leg in mice was performed under general anaesthesia using the well-characterized Bennett model. Briefly, mice (weighing 25-30 g at the time of surgery) were anesthetized with 3% isoflurane/100% O2 inhalation and maintained on 2% isoflurane/100% O2 for the duration of surgery. The left thigh was shaved, scrubbed with Nolvasan® and a small incision (1-1.5 cm in length) was made in the middle of the lateral aspect of the left thigh to expose the sciatic nerve. The nerve was loosely ligated around the entire diameter of the nerve at three distinct sites (spaced 1 mm apart) using silk sutures (6.0). The surgical site was closed with a single muscle suture and a skin clip. Pilot studies established that under our experimental conditions peak mechano-allodynia develops by day 5-day 7 (D5-D7) following CCI. Test substances or their vehicles were given subcutaneously (s.c.), intraperitoneally (i.p.) or orally by gavage (0.1 ml) at peak mechano-allodynia (D7).
Behavioral testing. […] The plantar aspect of hindpaws were probed three times with calibrated von Frey filaments (Stoelting, mice: 0.07-2.00 grams; rats: 0.407-26 grams) according to the “up-and-down” method. […] Briefly, each rat was placed in a Plexiglas chamber (28×40×35-cm, wire mesh floor) and after its acclimation, a servo-controlled mechanical stimulus was applied to the plantar surface that exerted a progressively increasing punctate pressure up to 50 grams within 10 seconds. Mechanical threshold was assessed three times at each time point to yield a mean value, reported as PWT (grams). […] Mechano-hyperalgesia was assessed in rats by the Randall and Sellitto paw pressure test using an analgesiometer (Ugo Basile). The nociceptive threshold was defined as the force (grams) at which the rat withdrew its paw (cut off set at 250 grams).
Determining ED50 values. Dose response data were curve-fitted using the least sum of square method by a normalized 4-parameter, variable slope non-linear analysis of the % Reversal of Mechano-allodynia in CCI and % Prevention of Mechano-allodynia or Mechano-hyperalgesia in CIPN using GraphPad Prism (Release 5.03, GraphPad Software, Inc.) from which the ED50 was determined and reported with the 95% confidence interval (95% CI). In the CCI model, the % Reversal of Mechano-allodynia=(PWT1h−PWTD7)/(PWTD0−PWTD7)×100, where PWTD0=Paw Withdrawal Threshold (g) at D0, PWT1h=Paw Withdrawal Threshold (g) at 1 hour after the administration of IB-MECA, gabapentin, amitriptyline, or combinations of IB-MECA with gabapentin or amitriptyline, and PWTD7=Paw Withdrawal Threshold (grams) at D7 prior to drug administration.
Statistical Analysis. Data are expressed as mean±SD for n animals. Behavioral data were analyzed by two-way repeated measures ANOVA with Bonferroni comparisons (full time course studies) or one-way ANOVA Dunnett's comparisons (1 hour behavioral data). The dose response curves were compared to a globally fitted curve using the extra sum-of-squares F-test comparisons to determine whether the data represented distinct curves between treatments. Significant differences were defined at a P<0.05. All statistical analysis was performed using GraphPad Prism (v5.03, GraphPad Software, Inc.).

Data set [4] relates to paclitaxel-induced neuropathic pain. The experiment in a line: Paclitaxel-induced neuropathic pain (mechano-allodynia, mechano-hyperalgesia). The class given is in vivo, rats. Conditions: 0.2 μmol/kg/d (not shown).
For data set [5] the following is noted: subjects receiving the drug; cited from earlier work.
For data set [6], the system named is RPMI 8226 multiple myeloma cells. The experiment in a line: MTT cell survival assay, RPMI 8226. The class given is cell-based, human. As to conditions: 48 hours. Here is the method: Cells were cultured and assayed in DMEM (SKBR3; human breast cancer cells), L15 (SW480; human colon cancer cells) or RPMI […] (RPMI 8226; human multiple myeloma cells) supplemented with heat-denatured 10% FBS and penicillin/streptomycin at 37° C., 0% (SW480) or 5% CO2 (SKBR3 and RPMI 8226), 95% humidity. The antitumor activities of these agents were measured in cells (6.25×10^4 cells/well) cultured overnight in 24-well plates (SKBR3 and SW480; BD Biosciences) or 12 mm×7.5 mm culture tubes (RPMI 8226; BD Biosciences) in complete media. […] Two naïve control wells were included as a control for 100% survival. Cell survival was determined using a MTT (3-(4,5-dimethylthiazol-2-yl)-2,5-diphenyltetrazolium bromide) assay adapted from a previously described assay. Cells were incubated with MTT (500 μg/ml) for 75 minutes at 37° C., 0% or 5% CO2, 95% humidity, removing the media and dissolving the tetrazolium crystals in isopropanol. […] The antitumor effects of IB-MECA alone were determined as % Survivability=(A560-570 nm of chemotherapeutic vehicle+IB-MECA)/(mean A560-570 nm of the naïve control wells)×100. The LD50 of each chemotherapeutic agent+IB-MECA or its vehicle was calculated using three-parameter non-linear analysis using % Survivability=(A560-570 nm of chemotherapeutic+IB-MECA or its vehicle)/(mean A560-570 nm chemotherapeutic vehicle+vehicle of IB-MECA)×100. […]
For orientation: Tetrazolium assays rely on reduction of a dye to a coloured formazan, in cell work by metabolically active cells.

Setting [7] is: co-administered IB-MECA 0.2 μmol/kg, D7.

For `CNC(=O)[C@]12C[C@@H]1[C@@H](n1cnc3c(NCc4cccc(I)c4)nc(Cl)nc31)[C@H](O)[C@@H]2O` [MRS1898, (1′R,2′R,3′S,4′R,5′S)-4-{2-chloro-6-[(3-iodophenylmethyl)amino]purin-9-yl}-1-(methylaminocarbonyl)-bicyclo[3.1.0]hexane-2,3-diol], the “effect on the hot plate” value in data set [1] was “had no effect”. Besides, the “effect on tail flick latency” value in data set [2] is “lacked effect”. For the same molecule, in data set [3] (D7 after CCI, drug alone), the “effect on PWT in contralateral paws” value is listed as “had no effect”. The “reversal of mechano-allodynia in ipsilateral paws” value in data set [3] is given as “reversed mechano-allodynia”. In addition, the “effect on paclitaxel-induced neuropathic pain” value in data set [4] is “completely blocked”.
On to `CC(C)C[C@H](NC(=O)[C@H](Cc1ccccc1)NC(=O)c1cnccn1)B(O)O` [Bortezomib], for which the “incidence of CIPN” value in data set [5] was 36-55%. Moreover, in data set [6], the LD50 is reported as 27 nM.
With `CN1CC[C@]23c4c5ccc(O)c4O[C@H]2[C@@H](O)C=C[C@H]3[C@H]1C5` [morphine], the “effect on tail flick latency” value in data set [2] is listed as “significant (P<0.001) increase in tail flick latencies”. In addition, in data set [3] (D7, time of peak reversal (FIG. 7)), the “efficacy of IB-MECA compared with this drug” value was “more efficacious”. Moreover, the “effect on PWT in contralateral paws” value in data set [3] (D7 after CCI, drug alone) is “not in contralateral paws”. Further, in data set [3] (Mus musculus, read-out: ED50, reversal of mechano-allodynia), the ED50 (commonly the dose at which the effect has come halfway, by size or by number of responders) was determined as 2.1 µmol/kg. Also, the “time of maximal reversal of mechano-allodynia” value in data set [3] (after single administration on D7) amounted to 0.5 h. In addition, in data set [3] (setting [7]), the “enhancement of efficacy by IB-MECA” value worked out at 1.6 fold and the “increase of potency by IB-MECA” value is over 2 fold. Besides, the “Emax, reversal of mechano-allodynia” value in data set [3] (mice, D7 after CCI, drug alone) is recorded as 62±3%. Further, the “ED50 at peak reversal of mechano-allodynia when combined with IB-MECA” value in data set [3] (mice, D7 after CCI, co-administered with IB-MECA 0.2 μmol/kg) was determined as 0.98 µmol/kg. Besides, the “fold less potent than IB-MECA in reversing mechano-allodynia” value in data set [3] (ratio of ED50 values, D7, time of peak reversal) was > 5 fold and 5 fold. For the same molecule, the “reversal of mechano-allodynia in ipsilateral paws” value in data set [3] is recorded as “dose-dependent reversal of mechano-allodynia”.
